Where two headings read alike, the source gives them in different places. Bounds are passed on as bounds.

Data set [1] in a line: Antiproliferative assay (MTT colorimetric test, 72 h). To be noted: human, n.a. = not active, read-out: A549, CC50. The class given is cell-based. The source says: The cytotoxicity of the synthesized oxindoles was studied using the A549 cell line in which the levels of NQO2 are increased (Table 4). […] The cytotoxicity of the compounds may be due to the inhibition of other enzymes associated with the activation of apoptosis in cancer cells, for example GSK3b or tyrosine kinases, or with the general non-specific toxicity of these compounds. Thus, the influence of NQO2 on A549 cell viability has not been established.
The A549 cells were maintained in F12-K (Gibco, Paisley, UK) supplemented with 10% fetal bovine serum (FBS, Gibco, UK), penicillin (100 UI mL^−1), streptomycin (100 µg mL^−1) and GlutaMax (2 mM, Gibco, UK). All cells line were cultured under a humidified atmosphere of 95% air/5% CO2 at 37 °C. Subconfluent monolayers, in the log growth phase, were harvested by a brief treatment with TrypLE Express solution (Gibco, UK) in phosphate-buffered saline (PBS, Capricorn Scientific, Ebsdorfergrund, Germany) and washed three times in serum-free PBS. The number of viable cells was determined by trypan blue exclusion.
The effects of the synthesized compounds on cell viability were determined using the MTT colorimetric test. All examined cells were diluted with the growth medium to 3.5 × 10^4 cells per mL and the aliquots (7 × 10^3 cells per 200 μL) were placed in individual wells in 96-multiplates (Eppendorf, Germany) and incubated for 24 h. […] After incubation, the cells were then treated with 40 μL MTT solution (3-(4,5-dimethylthiazol-2-yl)-2,5-diphenyltetrazolium bromide, 5 mg mL^−1 in PBS) and incubated for 4 h. After an additional 4 h incubation, the medium with MTT was removed and DMSO (150 μL) was added to dissolve the formazan crystals. The plates were shaken for 10 min. The optical density of each well was determined at 560 nm using a microplate reader GloMax Multi+ (Promega, Madison, WI, USA). Each of the tested compounds was evaluated for cytotoxicity in three separate experiments.
Background: Tetrazolium assays rely on reduction of a dye to a coloured formazan, in cell work by metabolically active cells.

Data set [2] concerns the target T1, human recombinant NRH:quinone oxidoreductase (NQO2) (Homo sapiens, UniProt P16083).
T1 construct: purchased Sigma Q0380
T1 sequence (P16083 1-231): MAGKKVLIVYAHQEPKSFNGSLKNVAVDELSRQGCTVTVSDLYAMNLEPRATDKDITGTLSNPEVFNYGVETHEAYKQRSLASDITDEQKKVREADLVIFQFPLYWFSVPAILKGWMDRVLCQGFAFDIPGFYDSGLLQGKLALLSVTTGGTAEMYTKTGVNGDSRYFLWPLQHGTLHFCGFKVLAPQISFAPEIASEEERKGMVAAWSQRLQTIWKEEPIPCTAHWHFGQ
As to the kind of experiment: biochemical. To be noted: for inhibition at 10 µM: read-out: NQO2 Inhibition, %. As for the experimental part:
The inhibition activity of all synthesized compounds at a concentration of 10 µM was preliminarily tested in vitro using human recombinant NRH:quinone oxidoreductase (NQO2).
The activity of recombinant human NQO2 (Sigma #Q0380, St. Louis, […], USA) was evaluated kinetically using menadione and N-benzyl-dihydronicotinamide (BNAH) as the substrate and co-substrate, respectively. All reagents and test compounds were dissolved in 50 mM Hepes-KOH (pH 7.4) containing 1 mM of β-octyl-D-glucopyranoside, 0.1 mg/mL BSA and 1 μM FAD. […] The solutions of the test compounds were pre-incubated for 5 min with 50 μL of human recombinant NQO2 (final concentration 42 ng/mL). Then, 25 μL of menadione was introduced at a final concentration of 100 μM. The reaction was started with 25 μL of 100 μM BNAH. The fluorescence of the co-substrate BNAH was followed at wavelengths of 370/440 nm at 37 °C using an Infinite M200 Pro microplate reader (Tecan, Grödig, Austria). The fluorescence data was fit according to a one-phase decay nonlinear regression to obtain slope values with Prism 8.0 (GraphPad Inc., San Diego, CA, USA). The activity in sample wells were normalized against negative control and enzyme-blank samples.

The mark [3] stands for this setting: recombinant human NQO2, 100 μM menadione, 100 μM BNAH, read-out: NQO2 IC50 ± SEM.

In general, CC50 refers to the concentration giving 50% cytotoxicity. By inhibition is commonly meant how much of the control response was suppressed. For `COc1ccc(C(=O)CC2(O)C(=O)Nc3ccc(Br)cc32)cc1` (stereo not shown) [Compound 50, 3-hydroxy-5-bromo-3-[2-(4-methoxyphenyl)-2-oxoethyl]-2-oxindole], the CC50 at 72 h in data set [1] worked out at 474 ± 18.2 µM. In addition, the inhibition at 10 µM in data set [2] worked out at 78.8%.
For the molecule `O=C1Nc2ccccc2C1=Cc1cccnc1` [Compound 7, 3-(3-pyridinylmethylidene)-2-oxindole], the half-maximal cytotoxic concentration (CC50) at 72 h in data set [1] worked out at 67.5 ± 7.58 µM. Moreover, the inhibition at 10 µM in data set [2] is 59.2%.
Usually IC50 stands for the midpoint of a concentration-inhibition curve. As to `COC(=O)CCn1cc(C=C2C(=O)Nc3ccccc32)cn1` [Compound 45, (E,Z)-3-(1-[2-(Methoxycarbonyl)ethyl]-1H-pyrazol-4-ylmethylidene)-2-oxindole], the IC50 in data set [2] was greater than 50 µM.
For `O=C1Nc2ccc(NC(=O)c3ccco3)cc2C1=Cc1ccc(O)cc1` [Compound 18, 3-(4-hydroxybenzylidene)-5-furoylamino-2-oxindole], the half-maximal cytotoxic concentration (CC50) at 72 h in data set [1] is 146 ± 11.3 µM. For the same molecule, in data set [2] (setting [3]), the IC50 came to 0.37 ± 0.02 µM.
For `CN1C(=O)C(=Cc2ccc(O)cc2)c2ccccc21` [Compound 15, 3-(4-hydroxybenzylidene)-N-methyl-2-oxindole], the 50% inhibitory concentration (IC50) in data set [2] (setting [3]) was 0.62 ± 0.04 µM.
Consider `CCOc1ccc(/C=C2/C(=O)Nc3ccccc32)cc1` [Compound 22, (E)-3-(4-Ethoxybenzylidene)-2-oxindole], for which the IC50 in data set [2] (setting [3]) is greater than 50 µM.
Regarding `O=C1Nc2ccc(Br)cc2C1=Cc1cccnc1` [Compound 8, 5-bromo-3-(3-pyridinylmethylidene)-2-oxindole], in data set [1], the CC50 at 72 h was found to be 22.3 ± 1.42 µM. Further, the inhibition at 10 µM in data set [2] was determined as 44.2%.
As for `O=C1Nc2ccc(NC(=O)c3ccccc3)cc2C1=Cc1ccc(O)cc1` [Compound 19, 3-(4-hydroxybenzylidene)-5-benzoylamino-2-oxindole], in data set [1], the cytotoxic concentration (CC50) at 72 h stood at 412.2 ± 3.98 µM. The inhibition at 10 µM in data set [2] came out at 62.9%.
Consider `Cc1ccc(C(=O)CC2(O)C(=O)Nc3ccc(NC(=O)c4ccco4)cc32)cc1` (stereo not shown) [Compound 51, 3-hydroxy-5-(2-furoylamino)-3-[2-(4-methylphenyl)-2-oxoethyl]-2-oxindole], for which, in data set [2], the IC50 was greater than 50 µM.
As for `Cc1ccc(C(=O)CC2(O)C(=O)Nc3ccc(Br)cc32)cc1` (stereo not shown) [Compound 49, 3-hydroxy-5-bromo-3-[2-(4-methylphenyl)-2-oxoethyl]-2-oxindole], the IC50 in data set [2] (setting [3]) was greater than 50 µM.
As for `O=C1Nc2ccc(NC(=O)c3ccccc3)cc2C1=Cc1ccccn1` [Compound 6, (E,Z)-3-(2-Pyridinylmethylidene)-5-benzoylamino-2-oxindole], the CC50 at 72 h in data set [1] is 17.4 ± 1.8 µM. For the same molecule, in data set [2], the inhibition at 10 µM was 43.1%.
Regarding `COc1cc(C=C2C(=O)Nc3ccc(NC(=O)c4ccco4)cc32)cc(OC)c1OC` [Compound 25, 3-(3,4,5-trimethoxybenzylidene)-5-furoylamino-2-oxindole], in data set [1], the CC50 at 72 h came to 201 ± 22.7 µM. For the same molecule, in data set [2], the IC50 was 0.66 ± 0.02 µM.
With `O=C1Nc2ccc([N+](=O)[O-])cc2C1=Cc1ccccn1` [Compound 4, 5-nitro-3-(2-pyridinylmethylidene)-2-oxindole], the concentration for half-maximal inhibition (IC50) in data set [2] was greater than 50 µM.
For `O=c1c(O)c(-c2ccc(O)c(O)c2)oc2cc(O)cc(O)c12` [Quercetin, reference compound], in data set [2] (setting [3]), the half-inhibitory concentration (IC50) amounted to 0.08 ± 0.02 µM.
For the molecule `Cc1n[nH]c(C)c1C=C1C(=O)Nc2ccccc21` [Compound 42, 3-((3,5-dimethyl-1H-pyrazol-4-yl)methylene)-2-oxindole], the inhibition at 10 µM in data set [2] turned out to be 54.4%.
As for `Cc1n[nH]cc1C=C1C(=O)Nc2ccccc21` [Compound 43, 3-((3-methyl-1H-pyrazol-4-yl)methylene)-2-oxindole], in data set [1], the half-maximal cytotoxic concentration (CC50) at 72 h is 219 µM. In addition, in data set [2], the 50% inhibitory concentration (IC50) amounted to 7.61 ± 0.19 µM.
Take `O=C1Nc2ccccc2C1=Cc1ccc([N+](=O)[O-])cc1` [Compound 27, 3-((4-nitrophenyl)methylene)-2-oxindole]: in data set [2], the IC50 is greater than 50 µM.
As to `O=C1Nc2ccc(NC(=O)c3ccccc3)cc2C1=Cc1ccc([N+](=O)[O-])cc1` (mixture of isomers) [Compound 29, 5-benzoylamino-3-((4-nitrophenyl)methylene)-2-oxindole], the IC50 in data set [2] was greater than 50 µM.
Consider `O=C1Nc2ccccc2C1=Cc1ccc(O)cc1` [Compound 14, 3-(4-hydroxybenzylidene)-2-oxindole], for which the CC50 at 72 h in data set [1] was determined as 80.9 ± 12.2 µM. For the same molecule, the 50% inhibitory concentration (IC50) in data set [2] was greater than 50 µM.
As to `COc1ccc2c(c1)C(O)(CC(=O)c1ccc(C)cc1)C(=O)N2` (stereo not shown) [Compound 48, 3-hydroxy-5-methoxy-3-[2-(4-methylphenyl)-2-oxoethyl]-2-oxindole], the IC50 in data set [2] (setting [3]) was greater than 50 µM.
`O=C1Nc2ccc(Br)cc2C1=Cc1cccs1` [Compound 38, 5-bromo-3-(2-thienylmethylidene)-2-oxindole]: the 50% cytotoxic concentration (CC50) at 72 h in data set [1] turned out to be 427 ± 6.2 µM. Moreover, the IC50 in data set [2] is greater than 50 µM.
Consider `CN1C(=O)C(=Cc2ccccn2)c2ccccc21` [Compound 2, N-methyl-3-((pyridin-2-yl)methylene)-2-oxindole], for which the IC50 in data set [2] is 16.78 ± 0.09 µM.
For `O=C1Nc2ccc(Br)cc2C1=Cc1ccco1` [Compound 35, 5-bromo-3-(2-furylmethylidene)-2-oxindole], the CC50 at 72 h in data set [1] was found to be 449 ± 18.7 µM. Further, in data set [2], the half-inhibitory concentration (IC50) is greater than 50 µM.
Consider `COC(=O)Nc1ccc2c(c1)C(=Cc1ccc(Br)cc1)C(=O)N2` [Compound 32, 3-(4-bromobenzylidene)-5-(methoxycarbonylamino)-2-oxindole], for which, in data set [2], the half-inhibitory concentration (IC50) was 0.61 ± 0.03 µM.
Regarding `CC(=O)Nc1ccc2c(c1)C(=Cc1ccc(O)cc1)C(=O)N2` [Compound 16, (E,Z)-3-(4-Hydroxybenzylidene)-5-acetamido-2-oxindole], in data set [2] (setting [3]), the IC50 was found to be 0.99 ± 0.03 µM.
As to `CCOC(=O)c1[nH]ncc1C=C1C(=O)Nc2ccccc21` [Compound 39, 3-((5-ethoxycarbonyl-1H-pyrazol-4-yl)methylene)-2-oxindole], the 50% cytotoxic concentration (CC50) at 72 h in data set [1] amounted to 231 µM.
For the molecule `O=C1Nc2ccc([N+](=O)[O-])cc2C1=Cc1ccncc1` [Compound 12, 5-nitro-3-(4-pyridinylmethylidene)-2-oxindole], the IC50 in data set [2] (setting [3]) was greater than 50 µM.
In the case of `Nc1ccc(CC2C(=O)Nc3ccccc32)cc1` (stereo not shown) [Compound 46, 3-(4-aminobenzyl)-2-oxindole], the 50% inhibitory concentration (IC50) in data set [2] was greater than 50 µM.
Take `COC(=O)Nc1ccc2c(c1)C(=Cc1ccc([N+](=O)[O-])cc1)C(=O)N2` [Compound 28, 3-(4-nitrobenzylidene)-5-(methoxycarbonylamino)-2-oxindole]: the inhibition at 10 µM in data set [2] amounted to 74%.
Consider `CN(C)c1ccc(C=C2C(=O)Nc3ccccc32)cc1` [Compound 30, (E,Z)-3-(4-Dimethylaminobenzylidene)-2-oxindole], for which, in data set [2], the half-maximal inhibitory concentration (IC50) was greater than 50 µM.
For the molecule `Cn1cc(C=C2C(=O)Nc3ccccc32)cn1` [Compound 41, 3-((1-methyl-1H-pyrazol-4-yl)methylene)-2-oxindole], the half-inhibitory concentration (IC50) in data set [2] amounted to 9.4 ± 0.12 µM.
In the case of `COc1cc(C=C2C(=O)Nc3ccc(NC(=O)c4ccccc4)cc32)cc(OC)c1O` [Compound 26, (E,Z)-3-(3,5-Dimethoxy-4-hydroxybenzylidene)-5-benzoylamino-2-oxindole], in data set [2], the inhibition at 10 µM is 40.5%.
Consider `CCOC(=O)c1[nH]ncc1C=C1C(=O)Nc2ccc([N+](=O)[O-])cc21` [Compound 40, 3-((5-ethoxycarbonyl-1H-pyrazol-4-yl)methylene)-5-nitro-2-oxindole], for which the IC50 in data set [2] was 1.88 ± 0.08 µM.
On to `Cc1nn(-c2ccccc2)c(C)c1C=C1C(=O)Nc2ccccc21` [Compound 44, 3-((3,5-dimethyl-1-phenyl-1H-pyrazol-4-yl)methylene)-2-oxindole], for which the inhibition at 10 µM in data set [2] was found to be 43.6%.
Regarding `Nc1ccc2c(c1)C(Cc1ccccn1)C(=O)N2` (stereo not shown) [Compound 47, 3-(pyridin-2-ylmethyl)-5-amino-2-oxindole], the IC50 in data set [2] (setting [3]) is greater than 50 µM.

(Values after article PMC9920986 (Molecules, 2023).)
